Data on six molecules can be found in US20220323406A1, “METHODS AND COMPOSITIONS FOR DIFFERENTIATING STEM CELLS” (Massachusetts Institute of Technology, priority 2019, published 2022).

Where a name gives a salt, the structure may show the parent alone.

The test system of assay [1] is ENR+CD organoids (ISC to Paneth cell differentiation). The assay can be described thus: Primary screen: basal (non-stimulated) lysozyme secretion LYZ.NS, 2.5-D 384-well ENR+CD organoid differentiation. Particulars: primary screen; for Z.LYZ.NS: standard z score. The assay is classed as cell-based, mouse. An excerpt:
(§1) High-throughput screening.

Assay [2] deals with ENR+CD organoids. The assay can be described thus: Primary screen: ATP (CellTiter-Glo 3D, CTG) cell number/viability, 2.5-D 384-well ENR+CD organoids.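 On all read-outs here: compounds given at plating and again on day 3 over a 6-day differentiation from ENR+CV stem-cell-enriched precursors, ATP measured on day 6, plate median as control.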 The conditions noted are these: primary screen; for Z.CTG: standard z score.
The subject of assay [3] is ENR+CD organoids (ISC to Paneth cell differentiation). Nature of the assay: Primary screen: CCh-stimulated lysozyme secretion LYZ.S, 2.5-D 384-well ENR+CD organoid differentiation. Type of assay: cell-based, mouse. The conditions noted are these: primary screen.
Text: as §1

Consider `CC(C)n1c(/C=C/C(O)CC(O)CC(=O)O)c(-c2ccc(F)cc2)c2ccccc21` (centres unmarked) [Fluvastatin Sodium], for which the Dose.FC.LYZ.NS in assay [1] (dose 0.08 uM) is on record as 0.112 log2 fold change; in assay [1] (dose 0.40 uM), −0.146 log2 fold change; in assay [1] (dose 2.00 uM), −0.203 log2 fold change; in assay [1] (dose 10.00 uM) it was −0.159 log2 fold change. For the same molecule, the Z.LYZ.NS in assay [1] (dose 0.08 uM) is given as 0.979; in assay [1] (dose 0.40 uM), −1.275; in assay [1] (dose 2.00 uM), −1.764; in assay [1] (dose 10.00 uM) it was −1.388. Also, the Dose.FC.CTG in assay [2] (dose 0.08 uM) is −0.161 log2 fold change; in assay [2] (dose 0.40 uM), −0.482 log2 fold change; in assay [2] (dose 2.00 uM), −1.111 log2 fold change; in assay [2] (dose 10.00 uM) it was −1.761 log2 fold change. Further, the Dose.FC.LYZ.S was 0.026 log2 fold change in assay [3] (dose 0.08 uM), −0.177 log2 fold change in assay [3] (dose 0.40 uM), −0.293 log2 fold change in assay [3] (dose 2.00 uM) and −0.267 log2 fold change in assay [3] (dose 10.00 uM).
Regarding `COCCCC/C(=N\OCCN)c1ccc(C(F)(F)F)cc1` [Fluvoxamine maleate], the Dose.FC.LYZ.NS in assay [1] (dose 0.08 uM) is given as 0.074 log2 fold change; in assay [1] (dose 0.40 uM) it was 0.087 log2 fold change; in assay [1] (dose 2.00 uM), 0.089 log2 fold change; in assay [1] (dose 10.00 uM), −0.027 log2 fold change. Also, the Z.LYZ.NS in assay [1] (dose 0.08 uM) is on record as 0.642; in assay [1] (dose 0.40 uM), 0.756; in assay [1] (dose 2.00 uM) it was 0.778; in assay [1] (dose 10.00 uM) it was −0.235. Moreover, the Dose.FC.CTG in assay [2] (dose 0.08 uM) turned out to be 0.115 log2 fold change; in assay [2] (dose 0.40 uM) it was 0.254 log2 fold change; in assay [2] (dose 2.00 uM), 0.211 log2 fold change; in assay [2] (dose 10.00 uM), 0.138 log2 fold change. Also, the Dose.FC.LYZ.S is listed as 0.114 log2 fold change in assay [3] (dose 0.08 uM), 0.172 log2 fold change in assay [3] (dose 0.40 uM), 0.108 log2 fold change in assay [3] (dose 2.00 uM) and 0.012 log2 fold change in assay [3] (dose 10.00 uM).
Take `COc1ccc(C[C@@H](C)NC[C@H](O)c2ccc(O)c(NC=O)c2)cc1.COc1ccc(C[C@@H](C)NC[C@H](O)c2ccc(O)c(NC=O)c2)cc1.O=C(O)/C=C/C(=O)O` [Formoterol Hemifumarate]: the Dose.FC.LYZ.NS in assay [1] (dose 0.08 uM) is 0.145 log2 fold change; in assay [1] (dose 0.40 uM), 0.073 log2 fold change; in assay [1] (dose 2.00 uM) it was 0.048 log2 fold change; in assay [1] (dose 10.00 uM), 0.013 log2 fold change. The Z.LYZ.NS in assay [1] (dose 0.08 uM) was determined as 1.263; in assay [1] (dose 0.40 uM) it was 0.638; in assay [1] (dose 2.00 uM), 0.420; in assay [1] (dose 10.00 uM), 0.114. Further, the Dose.FC.CTG in assay [2] (dose 0.08 uM) turned out to be 0.294 log2 fold change; in assay [2] (dose 0.40 uM), 0.265 log2 fold change; in assay [2] (dose 2.00 uM) it was 0.242 log2 fold change; in assay [2] (dose 10.00 uM) it was 0.253 log2 fold change. Also, the Z.CTG is listed as 0.703 in assay [2] (dose 0.08 uM), 0.633 in assay [2] (dose 0.40 uM), 0.578 in assay [2] (dose 2.00 uM) and 0.604 in assay [2] (dose 10.00 uM). In addition, the Dose.FC.LYZ.S in assay [3] (dose 0.08 uM) amounted to 0.206 log2 fold change; in assay [3] (dose 0.40 uM) it was 0.293 log2 fold change; in assay [3] (dose 2.00 uM), 0.090 log2 fold change; in assay [3] (dose 10.00 uM), 0.011 log2 fold change.
Consider `C=C[C@@]1(C)CC(=O)[C@]2(O)[C@@]3(C)[C@@H](O)CCC(C)(C)[C@@H]3[C@H](O)[C@H](OC(C)=O)[C@@]2(C)O1` [Forskolin], for which the Dose.FC.LYZ.NS in assay [1] (dose 0.08 uM) was −0.007 log2 fold change; in assay [1] (dose 0.40 uM), 0.159 log2 fold change; in assay [1] (dose 2.00 uM), 0.191 log2 fold change; in assay [1] (dose 10.00 uM) it was 0.219 log2 fold change. Also, the Z.LYZ.NS in assay [1] (dose 0.08 uM) is −0.058; in assay [1] (dose 0.40 uM) it was 1.381; in assay [1] (dose 2.00 uM), 1.661; in assay [1] (dose 10.00 uM) it was 1.905. The Dose.FC.CTG in assay [2] (dose 0.08 uM) was −0.213 log2 fold change; in assay [2] (dose 0.40 uM), −0.175 log2 fold change; in assay [2] (dose 2.00 uM) it was −0.330 log2 fold change; in assay [2] (dose 10.00 uM), −0.119 log2 fold change. Besides, the Dose.FC.LYZ.S in assay [3] (dose 0.08 uM) was −0.004 log2 fold change; in assay [3] (dose 0.40 uM), 0.237 log2 fold change; in assay [3] (dose 2.00 uM), 0.102 log2 fold change; in assay [3] (dose 10.00 uM) it was 0.128 log2 fold change.
For `COc1cc(Nc2ncc(F)c(Nc3ccc4c(n3)N(COP(=O)(O)O)C(=O)C(C)(C)O4)n2)cc(OC)c1OC` [Fostamatinib (R788)], the Dose.FC.LYZ.NS in assay [1] (dose 0.08 uM) is given as 0.119 log2 fold change; in assay [1] (dose 0.40 uM), −0.025 log2 fold change; in assay [1] (dose 2.00 uM) it was −0.099 log2 fold change; in assay [1] (dose 10.00 uM) it was −0.234 log2 fold change. In addition, the Z.LYZ.NS in assay [1] (dose 0.08 uM) is on record as 1.033; in assay [1] (dose 0.40 uM), −0.217; in assay [1] (dose 2.00 uM) it was −0.860; in assay [1] (dose 10.00 uM), −2.036. For the same molecule, the Dose.FC.CTG in assay [2] (dose 0.08 uM) is on record as 0.232 log2 fold change; in assay [2] (dose 0.40 uM), −0.052 log2 fold change; in assay [2] (dose 2.00 uM) it was −0.231 log2 fold change; in assay [2] (dose 10.00 uM) it was −0.881 log2 fold change. Further, the Z.CTG in assay [2] (dose 0.08 uM) was 0.554; in assay [2] (dose 0.40 uM) it was −0.123; in assay [2] (dose 2.00 uM) it was −0.552; in assay [2] (dose 10.00 uM) it was −2.105. Moreover, the Dose.FC.LYZ.S in assay [3] (dose 0.08 uM) is on record as 0.235 log2 fold change; in assay [3] (dose 0.40 uM), 0.156 log2 fold change; in assay [3] (dose 2.00 uM), −0.015 log2 fold change; in assay [3] (dose 10.00 uM), −0.350 log2 fold change.
With `C[C@]12CC[C@@H]3c4ccc(O)cc4C[C@@H](CCCCCCCCC[S+]([O-])CCCC(F)(F)C(F)(F)F)[C@H]3[C@@H]1CC[C@@H]2O` (some centres unmarked) [Fulvestrant], the Dose.FC.LYZ.NS in assay [1] (dose 0.08 uM) is 0.057 log2 fold change; in assay [1] (dose 0.40 uM) it was −0.050 log2 fold change; in assay [1] (dose 2.00 uM), 0.000 log2 fold change; in assay [1] (dose 10.00 uM), −0.043 log2 fold change. The Z.LYZ.NS is 0.500 in assay [1] (dose 0.08 uM), −0.432 in assay [1] (dose 0.40 uM), 0.003 in assay [1] (dose 2.00 uM) and −0.376 in assay [1] (dose 10.00 uM). Besides, the Dose.FC.CTG is 0.119 log2 fold change in assay [2] (dose 0.08 uM), −0.063 log2 fold change in assay [2] (dose 0.40 uM), 0.142 log2 fold change in assay [2] (dose 2.00 uM) and −0.204 log2 fold change in assay [2] (dose 10.00 uM). In addition, the Dose.FC.LYZ.S in assay [3] (dose 0.08 uM) is recorded as 0.051 log2 fold change; in assay [3] (dose 0.40 uM), −0.049 log2 fold change; in assay [3] (dose 2.00 uM), −0.024 log2 fold change; in assay [3] (dose 10.00 uM) it was −0.150 log2 fold change.
